Data set [1] has as its target purified tubulin and MAP2 (Homo sapiens, UniProt P11137). The data set can be described thus: MAP2-induced polymerization of microtubules in vitro (optical density at 345 nm). The class given is biochemical. As to the method:
Purified MAP2 and tubulin are mixed in the presence of GTP at 4° C. in a spectrophotometer cuvette. Polymerization is induced by heating at 37° C. and is followed by the increase in optical density (OD) which indicates the quantity of polymers formed.
This in vitro test measures the effect of molecules on the MAP2-induced polymerization of microtubules. This polymerization occurs when MAP2 proteins and tubulin are mixed at adequate concentrations in the presence of GTP. It is accompanied by an increase in optical density measured at 345 nm for 15 to 30 minutes with a UNICON spectrophotometer thermostated at 37° C. (FIG. 1).
Activity is measured by the increase in optical density at 345 nm of a mixture of purified tubulin and MAP2, incubated at 37° C. in the presence of GTP.

The test system of data set [2] is PC12 cells. The data set can be described thus: Neuritic growth / sprouting of PC12 cells in the presence of NGF. The class given is cell-based, rat. Conditions: increasing concentrations, 2, 5 and 8 days of culture, NGF 10 ng/ml. As to the method: Each molecule was tested in three culture wells. Measurements were taken for 200 cells per well using Scion Image software.
Neurite (neurite) length was measured for 200 cells per well after 2, 5, and 8 days of culture.
To rest the effect of selected molecules on neuritic growth, we first used the PC12 line, which has long been employed in neurobiological research. In the presence of NOF (nerve growth factor), the cells of this line, which arise from a rat pheochromocytoma, form neuritic extensions containing MAP-associated microtubules.
Stimulation of neuritic sprouting is conducted on PC12 cells differentiated in the presence of NGF (10 ng/ml) and the steroid being tested (30 μM) for 3 days. For each condition, the average length of the longest 200 neurites in each cell is measured simultaneously for 3 cultures.

The test system of data set [3] is Synaptophysin. Nature of the data set: Western blot of synaptophysin in cortex and hippocampus after CCI. Conditions: day 35, 20 mg/kg, first injection 2 h post-trauma, injured hippocampus. The class given is in vivo, rat. On the procedure: (§1) CCI was performed with an electromagnetic impact device as described (MyNeurolab, St. Louis, Mo.; Brody et al, 2007). Anesthesized rats were subjected to a single right lateral CCI, with the following parameters impact centered 4.0 mm anterior to lambda and 4.5 mm […] of midline, within the craniotomy of the animal. The impact was set at a velocity of 4 m/s with a sustained depression of 200 ms, using a 5.0 mm tip.
(§2) Samples were analyzed by Western-blot at day 35 post-trauma (D35) to evaluate the effects of MAP4343 on: MAP2 (the target of MAP4343 and a modulator of microtubule function), the post-synaptic markers PSD95 and spinophilin, the pre-synaptic marker synaptophysin, and the axonal growth/integrity marker […].
(§3) Western blot was performed on cortex and hippocampus of TBI-injured animals receiving the first injection of MAP4343 (at 10 mg/kg or 20 mg/kg) or vehicle (sesame oil) 2 h after injury.
(§4) The expression level of various neuronal brain markers of plasticity was measured at day 35 post-trauma by western-blots in the cortex and hippocampus of left uninjured and right injured cerebral hemispheres of CCI traumatized animals receiving either vehicle (sesame oil, CCI-D0) or 3-methoxy-PREG (MAP4343) at 10 mg/kg (CCI-D1) or 20 mg/kg (CCI-D2), with first MAP4343 injection 2 h post-trauma.
On the technique in general: A western blot detects proteins with antibodies after separation by electrophoresis.

Data set [4] in a line: Pharmacokinetics by GC/MS, brain and spinal cord. The class given is in vivo, rat. Conditions: 12 mg/kg subcutaneous in sesame oil; 1, 4, 8, 24 hours. As to the method: FIG. 9: Kinetics of the appearance of 3-methoxy-PREG (43B) in rat brain and spinal cord following subcutaneous injection of 43B (12 mg/kg) in a sesame oil solution.
The pharmacokinetics of the molecules tested in vivo are evaluated using gas chromatography/mass spectrometry (GC/MS) assays.

Data set [5] has as its system MAP2. The data set can be described thus: Western blot of MAP2 in cortex and hippocampus after CCI. The class given is in vivo, rat. Conditions: day 35, 20 mg/kg, first injection 2 h post-trauma, injured and non-injured cortex and hippocampus. As to the method: as §1, §2, §3, §4
Data set [6] concerns GFAP. Nature of the data set: GFAP immunohistochemistry after Lateral Fluid Percussion (LFP). The class given is in vivo, rat. The text has this: After anesthesia induction, the animal was placed on a stereotaxic frame. To expose the dura mater, craniotomy (diameter 5 mm) was under the left parietal cortex (−3.6 mm from Bregma, −3.0 mm from midline). A female Luer-Lock was placed over the craniotomy and was secured to the parietal bone with dental cement. The Luer-Lock was then filled with isotonic saline to create an interface with the dura meter.
Trauma was induced by a fluid percussion device (Custom Design and Manufacturing, United. Kingdom) (Besson et al., 2003) it is a cylindrical tank (60 cm long), with a piston on one side, over which a hammer exercises a constraint, and a male Luer-Lock on the other side. […] The amplitude of each shock wave was measured via a pressure transducer connected to the terminal portion of the device. The pressure signal was recorded on an oscilloscope. […]
After mounting on Superfrost slides, frozen sections were dried for 90 minutes at room temperature and stored at −80° C. until use. […] Immunostaining was quantitatively assessed by optical density measurements directly from the section image (Image J). […]
GFAP expression was measured by immunohistochemistry at day 35 post-trauma in injured and uninjured cortex, thalamus and hippocampus of LFP traumatized, rats treated with vehicle (sesame oil), or 3-methoxy-PREG (MAP4343) at 10 mg/kg or 20 mg/kg, with first injection at 2 hours post-trauma.

Setting [7] is: 40 μM, compared to solvent alone.

Sequence of purified tubulin and MAP2 (P11137 whole entry): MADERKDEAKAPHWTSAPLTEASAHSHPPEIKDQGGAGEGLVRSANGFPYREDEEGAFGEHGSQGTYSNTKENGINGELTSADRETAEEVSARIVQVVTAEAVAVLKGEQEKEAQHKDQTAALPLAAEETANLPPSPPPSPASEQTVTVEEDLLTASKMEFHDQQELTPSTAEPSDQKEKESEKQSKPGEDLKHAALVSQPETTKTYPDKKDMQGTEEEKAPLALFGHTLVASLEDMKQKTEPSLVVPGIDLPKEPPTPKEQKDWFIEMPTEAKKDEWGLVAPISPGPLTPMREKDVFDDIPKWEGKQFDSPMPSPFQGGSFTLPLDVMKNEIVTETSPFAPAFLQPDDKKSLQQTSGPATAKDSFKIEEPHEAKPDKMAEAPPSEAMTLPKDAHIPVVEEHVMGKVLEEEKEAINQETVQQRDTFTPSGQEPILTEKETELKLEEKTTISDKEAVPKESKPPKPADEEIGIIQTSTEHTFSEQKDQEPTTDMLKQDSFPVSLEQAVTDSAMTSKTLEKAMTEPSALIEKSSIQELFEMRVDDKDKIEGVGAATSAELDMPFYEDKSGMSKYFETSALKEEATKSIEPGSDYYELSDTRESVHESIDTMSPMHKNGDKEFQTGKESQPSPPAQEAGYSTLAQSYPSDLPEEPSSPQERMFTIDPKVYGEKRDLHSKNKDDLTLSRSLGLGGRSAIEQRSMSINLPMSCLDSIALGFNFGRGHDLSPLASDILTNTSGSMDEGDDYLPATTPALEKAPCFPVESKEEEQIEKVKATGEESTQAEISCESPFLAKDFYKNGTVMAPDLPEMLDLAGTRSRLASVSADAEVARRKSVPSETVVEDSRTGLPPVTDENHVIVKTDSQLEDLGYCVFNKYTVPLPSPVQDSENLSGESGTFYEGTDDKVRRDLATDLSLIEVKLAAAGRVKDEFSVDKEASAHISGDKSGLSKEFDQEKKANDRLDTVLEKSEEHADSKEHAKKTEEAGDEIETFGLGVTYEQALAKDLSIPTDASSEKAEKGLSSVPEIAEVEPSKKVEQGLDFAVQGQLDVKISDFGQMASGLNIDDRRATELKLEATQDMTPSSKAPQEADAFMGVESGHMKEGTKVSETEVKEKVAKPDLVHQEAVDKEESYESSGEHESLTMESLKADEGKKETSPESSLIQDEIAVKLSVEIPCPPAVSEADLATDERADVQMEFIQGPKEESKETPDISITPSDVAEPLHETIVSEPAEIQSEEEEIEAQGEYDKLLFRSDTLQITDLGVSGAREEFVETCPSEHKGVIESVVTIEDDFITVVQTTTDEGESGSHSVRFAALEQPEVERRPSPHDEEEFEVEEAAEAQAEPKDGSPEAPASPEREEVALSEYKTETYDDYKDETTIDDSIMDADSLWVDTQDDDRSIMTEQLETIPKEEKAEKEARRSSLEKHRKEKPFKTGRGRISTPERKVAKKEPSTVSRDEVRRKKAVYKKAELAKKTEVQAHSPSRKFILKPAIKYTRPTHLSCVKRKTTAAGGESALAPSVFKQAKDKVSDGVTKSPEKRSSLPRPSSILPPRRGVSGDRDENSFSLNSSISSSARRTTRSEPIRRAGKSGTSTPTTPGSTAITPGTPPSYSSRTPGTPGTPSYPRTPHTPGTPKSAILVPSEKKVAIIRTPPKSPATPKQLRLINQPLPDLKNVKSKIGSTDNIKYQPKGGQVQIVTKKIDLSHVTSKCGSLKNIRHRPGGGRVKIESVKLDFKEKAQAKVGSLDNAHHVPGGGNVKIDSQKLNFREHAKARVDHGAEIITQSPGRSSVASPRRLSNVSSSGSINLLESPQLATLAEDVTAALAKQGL

For the compound `CO[C@H]1CC[C@@]2(C)C(=CC[C@H]3[C@@H]4CC[C@H](C(C)=O)[C@@]4(C)CC[C@@H]32)C1` [3-methoxy-PREG, 3β-methoxy-pregna-5-ene-20-one], in data set [1], the microtubule polymerization result is given as “activates microtubule polymerization”. Also, in data set [1] (setting [7]), the “Lag time of microtubule polymerization” value is given as “decreased”; the “polymerization rate and quantity of microtubules” value is given as “clearly increase”. The “increase in the length of neurites” value in data set [2] is recorded as not above 500%. In data set [3], the Synaptophysin expression result is “increase in Synaptophysin expression in injured hippocampus”. For the same compound, the “penetration into spinal cord and brain” value in data set [4] is “penetrates rapidly into the spinal cord and the brain”. The MAP2 expression entry in data set [5] was “strong increase of MAP-2”. For the same compound, in data set [6] (day 35, 10 mg/kg or 20 mg/kg, first injection 2 hours post-trauma), the “astrocytes GFAP immunoreactivity in the injured cortex” value is on record as “highly decreased”. Besides, in data set [6] (day 35, especially Dose2 (20 mg/kg)), the “astrocytes immunoreactivity in the injured thalamus” value is “strongly decreases astrocytes immunoreactivity”.

For the origin of these results see patent US9339508B2, “Use of 3-methoxy-pregnenolone for the preparation of a drug for treating a traumatic brain injury” (MAPREG, priority 2003, dated 2016).
